Where two headings read alike, the source gives them in different places.

As a reminder, the inhibition is the drop in the measured response relative to a control, in per cent.

Assay [1] deals with SJ-G2 (glioblastoma). Nature of the assay: Cancer screening (MTT growth inhibition), SJ-G2. The format is cell-based. The note with it: 72 h; for inhibition at 25 µM: SJ-G2, 25 µM of drug, read-out: Percentage (%) cell growth inhibition; for inhibition at 25 µM / Percentage (%) cell growth inhibition: n = 3, mean ± SEM; for Percentage (%) cell growth inhibition: 25 µM of drug. How it is done:
(§1) All test agents were prepared as stock solutions (20 mM) in dimethyl sulfoxide (DMSO) and stored at −20 °C. Cell lines used in the study included: HT29 (colorectal carcinoma), U87 and SJ-G2 (glioblastoma), MCF-7 (breast carcinoma), A2780 (ovarian carcinoma), H460 (lung carcinoma), A431 (skin carcinoma), Du145 (prostate carcinoma), BE2-C (neuroblastoma), MiaPaCa-2 (pancreatic carcinoma), SMA560 (spontaneous murine astrocytoma), and ADDP (Cis Res Ovarian), together with one non-tumor-derived normal breast cell line (MCF10A). All cell lines were incubated in a humidified atmosphere with 5 % CO2 at 37 °C. The cancer cell lines were maintained in Dulbecco’s modified Eagle’s medium (DMEM; Sigma, Australia) supplemented with fetal bovine serum (10%), sodium pyruvate (10 mM), penicillin (100 IUmL^−1), streptomycin (100 µg mL^−1), and L-glutamine (2 mM).
(§2) Growth inhibition was determined by plating cells in duplicate in medium (100 µL) at a density of 2500–4000 cells per well in 96-well plates. On day 0 (24 h after plating), when the cells are in logarithmic growth, medium (100 µL) with or without the test agent was added to each well. After 72 h of drug exposure, growth inhibitory effects were evaluated using the (3-(4,5-dimethyltiazol-2-yl)-2,5-diphenyltetrazolium bromide) (MTT) assay and absorbance read at 540 nm. The percentage growth inhibition was calculated at a fixed concentration of 25 µM, based on the difference between the optical density values on day 0 and those at the end of drug exposure. Each data point is the mean ± the standard error of the mean (SEM) calculated from three replicates, which were performed on separate occasions and in separate cell line passages.

The target in assay [2] is T1, bovine kidney α-L-fucosidase (Bos taurus, UniProt Q2KIM0).
T1 construct: purchased Sigma-Aldrich Co; host or cells: bovine kidney
T1 sequence (Q2KIM0 23-468): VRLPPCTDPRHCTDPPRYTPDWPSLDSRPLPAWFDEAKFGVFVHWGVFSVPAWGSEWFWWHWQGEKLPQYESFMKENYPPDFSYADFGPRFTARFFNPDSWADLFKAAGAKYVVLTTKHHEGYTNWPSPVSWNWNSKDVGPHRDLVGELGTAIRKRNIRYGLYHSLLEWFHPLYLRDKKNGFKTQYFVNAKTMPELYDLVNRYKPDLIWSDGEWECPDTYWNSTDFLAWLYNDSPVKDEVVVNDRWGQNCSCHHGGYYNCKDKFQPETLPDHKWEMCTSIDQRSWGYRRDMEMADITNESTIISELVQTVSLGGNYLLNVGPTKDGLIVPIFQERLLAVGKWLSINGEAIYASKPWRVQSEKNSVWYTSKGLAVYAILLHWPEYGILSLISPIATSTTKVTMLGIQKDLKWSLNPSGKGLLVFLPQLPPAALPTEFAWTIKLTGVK
Nature of the assay: Glycosidase inhibition, bovine kidney α-L-fucosidase. It is filed as biochemical. The text has this:
(§3) Glycosidase modulation studies need to explore selectivity as well as potency. Our drugs and controls are therefore screened against a panel of glycosidases in methanol (Table 1) to identify the glycosidase-related disease area(s), selectivity profile, and potency of biological action for each drug. The presence of organic boron covalently bonded to the drug structure also grants a reduced toxicity profile. Following the glycosidase inhibition range recommendations, an IC50 value >250 μm denotes weak inhibition, 100–249 μm denotes moderate inhibition, 10–99 μm good inhibition, 0.1–9 μm potent inhibition, and <0.1 μm very potent inhibition. […] Our boronated D-galactose 7 represents a novel lead in glycosidase inhibition.
(§4) The glycosidases screened are the following: rice α-glucosidase, yeast α-glucosidase, Bacillus α-glucosidase, rat intestinal maltase α-glucosidase, almond β-glucosidase, bovine liver β-glucosidase, coffee beans α-galactosidase, bovine liver β-galactosidase, Jack bean α-mannosidase, snail β-mannosidase, Penicillium decumbens α-L-rhamnosidase, bovine kidney α-L-fucosidase, Eschierichia coli β-glucuronidase, bovine liver β-glucuronidase, porcine kidney trehalase, Aspergillus niger amyloglucosidase, and bovine kidney N-acetyl-β-glucosaminidase. The disease areas for each glycosidase are summarized in [1].
(§5) The enzymes α-glucosidase (from yeast), β-glucosidases (from almond and bovine liver), α-galactosidase (from coffee beans), β-galactosidase (from bovine liver), α-mannosidase (from Jack bean), β-mannosidase (from snail), α-L-rhamnosidase (from Penicillium decumbens), α-L-fucosidase (from bovine kidney), trehalase (from porcine kidney), β-glucuronidases (from E. coli and bovine liver), amyloglucosidase (from A. niger), para-nitrophenyl glycosides, and various disaccharides were purchased from Sigma-Aldrich Co.
(§6) Brush border membranes were prepared from the rat small intestine according to the method of Kessler et al. and were assayed at pH 6.8 for rat intestinal maltase using maltose. For rat intestinal maltase, porcine kidney trehalase, and A. niger amyloglucosidase activities, the reaction mixture contained 25 mM maltose and the appropriate amount of enzyme, and the incubations were performed for 10–30 min at 37 °C. The reaction was stopped by heating at 100 °C for 3 min. After centrifugation (600 g; 10 min), the resulting reaction mixture was added to the Glucose CII-test Wako (Wako Pure Chemical Ind., Osaka, Japan). The absorbance at 505 nm was measured to determine the amount of the released D-glucose. Other glycosidase activities were determined using an appropriate para-nitrophenyl glycoside as substrate at the optimum pH of each enzyme. The reaction mixture contained 2 mM of the substrate and the appropriate amount of enzyme. The reaction was stopped by the addition of 400 mM Na2CO3. The released para-nitrophenol was measured spectrometrically at 400 nm. All reactions run in methanol.

Assay [3] deals with almond β-glucosidase. Nature of the assay: Glycosidase inhibition, almond β-glucosidase. The format is biochemical. The note with it: for inhibition %: in methanol.
Description: as §3, §4, §5, §6

Assay [4] has as its system MCF-7 (breast carcinoma). Nature of the assay: Cancer screening (MTT growth inhibition), MCF-7. The format is cell-based. The note with it: 72 h; for inhibition at 25 µM: MCF7, 25 µM of drug, read-out: Percentage (%) cell growth inhibition; for inhibition at 25 µM / Percentage (%) cell growth inhibition: n = 3, mean ± SEM; for Percentage (%) cell growth inhibition: 25 µM of drug. How it is done: as §1, §2

Where [5] appears, read: at 100 μM, in methanol, read-out: inhibition %.
The mark [6] stands for this setting: at 100 μM, read-out: NI: No inhibition.

Take `CC1(C)OCC(C2OC3OC(C)(C)OC3C2[B-]23OCC[NH+]2CCO3)O1` [Compound 6, 3-Deoxy-3-Boronodiethanolamine-1,2:5,6-Di-O-isopropylidene-α-D-galactofuranose]: the inhibition at 25 µM is < 0% in assay [1] and 14 ± 5% in assay [4] (Homo sapiens). In addition, the results for the inhibition at 100 µM in assay [2] (setting [5]) and in assay [2] (setting [6]) were 6.5% and < 50%, respectively. Moreover, in assay [3] (at 100 μM), the “NI: No inhibition” value was “NI (No inhibition (less than 50% inhibition at 100 μM))”. In assay [3] (at 100 μM), this compound showed an inhibition % of 0.3%.

Regarding Borocaptate sodium [BSH], the “Percentage (%) cell growth inhibition” value is given as 3 ± 8% in assay [1] and 15 ± 3% in assay [4]. In addition, the “NI: No inhibition” value in assay [2] (at 1000 μM) and in assay [3] (at 1000 μM) was “NI (No inhibition (less than 50% inhibition at 1000 μM))” each time. Further, the inhibition % in assay [2] (at 1000 μM, in methanol) turned out to be 0%; in assay [3] (at 1000 μM) it was 0%.

`OCC1OC(O)C(O)C(B(O)O)C1O` [Compound 7, 3-Boronic-3-Deoxy-D-galactose]: the inhibition at 25 µM amounted to 7 ± 4% in assay [1] and 2 ± 2% in assay [4] (Homo sapiens). Moreover, the GI50 in assay [1] (SJ-G2, dose response, read-out: GI50 = Concentration that inhibits cell growth by 50%) was > 50 µM; in assay [4] (Homo sapiens, MCF7, dose response, read-out: GI50 = Concentration that inhibits cell growth by 50%), > 50 µM. For the same compound, the inhibition at 1000 µM in assay [2] (at 1000 μM, in methanol, read-out: inhibition %) is 1.3%; in assay [2] (at 1000 μM, read-out: NI: No inhibition), < 50%. Moreover, the “NI: No inhibition” value in assay [3] (at 1000 μM) is “NI (No inhibition (less than 50% inhibition at 1000 μM))”. This compound also yielded an inhibition % in assay [3] (at 1000 μM) of 1.3%.

Consider `N[C@@H](Cc1ccc(B(O)O)cc1)C(=O)O` [BPA, 4-borono-L-phenylalanine], for which the values for the inhibition at 25 µM in assay [1] and in assay [4] (Homo sapiens) were 5 ± 8% and < 0%, respectively. In addition, the inhibition at 100 µM is 0% in assay [2] (setting [5]) and < 50% in assay [2] (setting [6]). Moreover, the “NI: No inhibition” value in assay [3] (at 100 μM) was “NI (No inhibition (less than 50% inhibition at 100 μM))”. The same compound returned an inhibition % in assay [3] (at 100 μM) of 0%.

As for `N[C@@H](Cc1ccc(B(O)O)cc1)C(=O)O` [^10B-BPA], the “Percentage (%) cell growth inhibition” value in assay [1] is 5 ± 10%; in assay [4], 1 ± 3%. The “NI: No inhibition” value in assay [2] (at 100 μM) and in assay [3] (at 100 μM) was “NI (No inhibition (less than 50% inhibition at 100 μM))” each time. In addition, the inhibition % came to 0% in assay [2] (at 100 μM, in methanol) and 0% in assay [3] (at 100 μM).

Source of the values: paper PMC10254170, “Diastereoselective Synthesis of the Borylated D-Galactose Monosaccharide 3-Boronic-3-Deoxy-D-Galactose and Biological Evaluation in Glycosidase Inhibition and in Cancer for Boron Neutron Capture Therapy (BNCT)” (Molecules, 2023).
